# pIC50: −log10 of the molar value.
# Test system: 186277-243-T-J2-PDC complex spheroids, viability
# Assay: Anticancer human tumor 186277-243-T-J2-PDC patient-derived colon adenocarcinoma cell line growth inhibition [RAS]
# Conditions: for pIC50: curve of first compound; for viability, T/C: stronger effect = lower value
# In short: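 Agents were tested in combination matrices in half-log decrements from a top concentration at or near clinical Cmax (10 microM if undetermined). Targets were multi-cell spheroids of tumour lines plus HUVEC and MSC stromal cells.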
# [1] = second compound 0.0316 µM, first compound 0.00316 µM
# [2] = second compound 0.0316 µM, first compound 0.01 µM
# [3] = second compound 0.0316 µM, first compound 0.0316 µM
# [4] = second compound 0.0316 µM, first compound 0.1 µM
# [5] = second compound 0.0316 µM, first compound 0.316 µM
# [6] = second compound 0.0316 µM, first compound 1 µM
# [7] = second compound 0.1 µM, first compound 0.00316 µM
# [8] = second compound 0.1 µM, first compound 0.01 µM
# [9] = second compound 0.1 µM, first compound 0.0316 µM
# [10] = second compound 0.1 µM, first compound 0.1 µM
# [11] = second compound 0.1 µM, first compound 0.316 µM
# [12] = second compound 0.1 µM, first compound 1 µM
# [13] = second compound 0.316 µM, first compound 0.00316 µM
# [14] = second compound 0.316 µM, first compound 0.01 µM
# [15] = second compound 0.316 µM, first compound 0.0316 µM
# [16] = second compound 0.316 µM, first compound 0.1 µM
# [17] = second compound 0.316 µM, first compound 0.316 µM
# [18] = second compound 0.316 µM, first compound 1 µM
# [19] = second compound 1 µM, first compound 0.00316 µM
# [20] = second compound 1 µM, first compound 0.01 µM
# [21] = second compound 1 µM, first compound 0.0316 µM
# [22] = second compound 1 µM, first compound 0.1 µM
# [23] = second compound 1 µM, first compound 0.316 µM
# [24] = second compound 1 µM, first compound 1 µM
# [25] = second compound 3.16 µM, first compound 0.00316 µM
# [26] = second compound 3.16 µM, first compound 0.01 µM
# [27] = second compound 3.16 µM, first compound 0.0316 µM
# [28] = second compound 3.16 µM, first compound 0.1 µM
# [29] = second compound 3.16 µM, first compound 0.316 µM
# [30] = second compound 3.16 µM, first compound 1 µM
# [31] = second compound 10 µM, first compound 0.00316 µM
# [32] = second compound 10 µM, first compound 0.01 µM
# [33] = second compound 10 µM, first compound 0.0316 µM
# [34] = second compound 10 µM, first compound 0.1 µM
# [35] = second compound 10 µM, first compound 0.316 µM
# [36] = second compound 10 µM, first compound 1 µM
# 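Note: spheroids exposed to compounds for 7 days before viability read.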
smiles,measurement,setting,value
CC1(C)CCC(Nc2ncc(C(F)(F)F)c(-c3c[nH]c4c(P(C)(C)=O)c(C#N)ccc34)n2)CN1 (stereo unspecified) + CCn1c(-c2cccnc2C(C)OC)c2c3cc(ccc31)N1CCOC(CC(NC(=O)C(C(C)C)N(C)C(=O)C3(F)CCN(C(=O)C#CC(C)(C)N(C)C)CC3)C(=O)N3CCCC(N3)C(=O)OCC(C)(C)C2)C1,pIC50,second compound 0.000949 µM,< 6.52
same,pIC50,second compound 0.003 µM,6.63
same,pIC50,second compound 0.00949 µM,< 6.52
same,pIC50,second compound 0.03 µM,< 6.52
same,pIC50,second compound 0.0949 µM,6.87
same,pIC50,second compound 0.3 µM,7.44
same,"viability, T/C","second compound 0.000949 µM, first compound 0.000949 µM",79.3%
same,"viability, T/C","second compound 0.000949 µM, first compound 0.003 µM",84.8%
same,"viability, T/C","second compound 0.000949 µM, first compound 0.00949 µM",112%
same,"viability, T/C","second compound 0.000949 µM, first compound 0.03 µM",81.5%
same,"viability, T/C","second compound 0.000949 µM, first compound 0.0949 µM",57.9%
same,"viability, T/C","second compound 0.000949 µM, first compound 0.3 µM",51.6%
same,"viability, T/C","second compound 0.003 µM, first compound 0.000949 µM",100%
same,"viability, T/C","second compound 0.003 µM, first compound 0.003 µM",90.2%
same,"viability, T/C","second compound 0.003 µM, first compound 0.00949 µM",103%
same,"viability, T/C","second compound 0.003 µM, first compound 0.03 µM",83.5%
same,"viability, T/C","second compound 0.003 µM, first compound 0.0949 µM",58.6%
same,"viability, T/C","second compound 0.003 µM, first compound 0.3 µM",47.4%
same,"viability, T/C","second compound 0.00949 µM, first compound 0.000949 µM",104%
same,"viability, T/C","second compound 0.00949 µM, first compound 0.003 µM",104%
same,"viability, T/C","second compound 0.00949 µM, first compound 0.00949 µM",103%
same,"viability, T/C","second compound 0.00949 µM, first compound 0.03 µM",85.6%
same,"viability, T/C","second compound 0.00949 µM, first compound 0.0949 µM",56.3%
same,"viability, T/C","second compound 0.00949 µM, first compound 0.3 µM",50.5%
same,"viability, T/C","second compound 0.03 µM, first compound 0.000949 µM",92%
same,"viability, T/C","second compound 0.03 µM, first compound 0.003 µM",98.6%
same,"viability, T/C","second compound 0.03 µM, first compound 0.00949 µM",108%
same,"viability, T/C","second compound 0.03 µM, first compound 0.03 µM",85.1%
same,"viability, T/C","second compound 0.03 µM, first compound 0.0949 µM",57.9%
same,"viability, T/C","second compound 0.03 µM, first compound 0.3 µM",49.7%
same,"viability, T/C","second compound 0.0949 µM, first compound 0.000949 µM",107%
same,"viability, T/C","second compound 0.0949 µM, first compound 0.003 µM",103%
same,"viability, T/C","second compound 0.0949 µM, first compound 0.00949 µM",91.9%
same,"viability, T/C","second compound 0.0949 µM, first compound 0.03 µM",71.1%
same,"viability, T/C","second compound 0.0949 µM, first compound 0.0949 µM",53.3%
same,"viability, T/C","second compound 0.0949 µM, first compound 0.3 µM",43.3%
same,"viability, T/C","second compound 0.3 µM, first compound 0.000949 µM",102%
same,"viability, T/C","second compound 0.3 µM, first compound 0.003 µM",96.3%
same,"viability, T/C","second compound 0.3 µM, first compound 0.00949 µM",87.8%
same,"viability, T/C","second compound 0.3 µM, first compound 0.03 µM",51.9%
same,"viability, T/C","second compound 0.3 µM, first compound 0.0949 µM",36.8%
same,"viability, T/C","second compound 0.3 µM, first compound 0.3 µM",30.8%
C=CC(=O)Nc1cc(Nc2nccc(-c3cn(C)c4ccccc34)n2)c(OC)cc1N(C)CCN(C)C + C#Cc1c(F)ccc2cc(O)cc(-c3ncc4c(N5CC6CCC(C5)N6)nc(OCC56CCCN5CC(F)C6)nc4c3F)c12,pIC50,second compound 0.0316 µM,7.01
same,pIC50,second compound 0.1 µM,7.46
same,pIC50,second compound 0.316 µM,> 8.50
same,pIC50,second compound 1 µM,> 8.50
same,pIC50,second compound 3.16 µM,> 8.50
same,pIC50,second compound 10 µM,> 8.50
same,"viability, T/C",[1],67.1%
same,"viability, T/C",[2],76.4%
same,"viability, T/C",[3],69.8%
same,"viability, T/C",[4],37.6%
same,"viability, T/C",[5],40.9%
same,"viability, T/C",[6],15%
same,"viability, T/C",[7],51.4%
same,"viability, T/C",[8],61.5%
same,"viability, T/C",[9],52.3%
same,"viability, T/C",[10],28.4%
same,"viability, T/C",[11],16.5%
same,"viability, T/C",[12],8.02%
same,"viability, T/C",[13],23.2%
same,"viability, T/C",[14],31.3%
same,"viability, T/C",[15],22.7%
same,"viability, T/C",[16],13.8%
same,"viability, T/C",[17],10.4%
same,"viability, T/C",[18],6.25%
same,"viability, T/C",[19],15.8%
same,"viability, T/C",[20],18%
same,"viability, T/C",[21],13.4%
same,"viability, T/C",[22],11.4%
same,"viability, T/C",[23],8.84%
same,"viability, T/C",[24],6.02%
same,"viability, T/C",[25],10.4%
same,"viability, T/C",[26],12.5%
same,"viability, T/C",[27],11.1%
same,"viability, T/C",[28],8.84%
same,"viability, T/C",[29],7.79%
same,"viability, T/C",[30],4.87%
same,"viability, T/C",[31],9.04%
same,"viability, T/C",[32],8.39%
same,"viability, T/C",[33],8.64%
same,"viability, T/C",[34],7.72%
same,"viability, T/C",[35],6.69%
same,"viability, T/C",[36],3.95%
Nc1ccn(C2OC(CO)C(O)C2(F)F)c(=O)n1 (stereo unspecified) + C#Cc1c(F)ccc2cc(O)cc(-c3ncc4c(N5CC6CCC(C5)N6)nc(OCC56CCCN5CC(F)C6)nc4c3F)c12,pIC50,second compound 0.0316 µM,> 8.50
same,pIC50,second compound 0.1 µM,> 8.50
same,pIC50,second compound 0.316 µM,> 8.50
same,pIC50,second compound 1 µM,> 8.50
same,pIC50,second compound 3.16 µM,> 8.50
same,pIC50,second compound 10 µM,> 8.50
same,"viability, T/C",[1],47%
same,"viability, T/C",[2],8.41%
same,"viability, T/C",[3],7.36%
same,"viability, T/C",[4],8.79%
same,"viability, T/C",[5],6.46%
same,"viability, T/C",[6],8.3%
same,"viability, T/C",[7],28.4%
same,"viability, T/C",[8],8.66%
same,"viability, T/C",[9],8.73%
same,"viability, T/C",[10],6.07%
same,"viability, T/C",[11],7.33%
same,"viability, T/C",[12],7.04%
same,"viability, T/C",[13],14.2%
same,"viability, T/C",[14],8.55%
same,"viability, T/C",[15],7.4%
same,"viability, T/C",[16],7.69%
same,"viability, T/C",[17],5.4%
same,"viability, T/C",[18],7.34%
same,"viability, T/C",[19],9.92%
same,"viability, T/C",[20],7.97%
same,"viability, T/C",[21],7.96%
same,"viability, T/C",[22],6.96%
same,"viability, T/C",[23],7.3%
same,"viability, T/C",[24],5.65%
same,"viability, T/C",[25],7.24%
same,"viability, T/C",[26],6.5%
same,"viability, T/C",[27],6.06%
same,"viability, T/C",[28],5.7%
same,"viability, T/C",[29],4.35%
same,"viability, T/C",[30],5.91%
same,"viability, T/C",[31],8.28%
same,"viability, T/C",[32],7.76%
same,"viability, T/C",[33],5.58%
same,"viability, T/C",[34],5.8%
same,"viability, T/C",[35],5.91%
same,"viability, T/C",[36],6.36%
